Results from patent US20230167088A1, “1-PYRAZINYLPYRAZOLYL-3-OXYALKYL ACIDS AND THEIR DERIVATIVES, AND THEIR USE FOR CONTROL OF UNDESIRED PLANT GROWTH” (BAYER AKTIENGESELLSCHAFT, priority 2020, published 2023).

Tests used:
STEME = experiment: Herbicidal pre-emergence action 2b (doubly sown, 1280 g/ha); type: in vivo, Stellaria media; conditions: doubly sown pots, dosage 1280 g/ha, visual scoring after about 3 weeks
Text: (§1) [table] b) Seeds of mono- and dicotyledonous weed plants are placed in plastic pots in sandy loam soil (doubly sown with one species each of mono- or dicotyledonous weed plants per pot) and covered with soil. The compounds of the invention, formulated in the form of wettable powders (WP) or as emulsion concentrates (EC), are then applied onto the surface of the covering soil as aqueous suspension or emulsion with addition of 0.5% additive at a water application rate equivalent to 600 litres per hectare. After the treatment, the pots are placed in a greenhouse and kept under good growth conditions for the trial plants. After about 3 weeks, the effect of the preparations is scored visually in comparison with untreated controls as percentages. For example, 100% activity=the plants have died, 0% activity=like control plants. Tables B16 to B21 below show the effects of selected compounds of the general formula (I) according to Tables 1 and 2 on various harmful plants and at an application rate corresponding to 1280 g/ha, which were obtained by the experimental procedure mentioned above.

POAAN [1] = experiment: Herbicidal post-emergence action 1b (twin sowing, 1280 g/ha); type: in vivo, Poa annua; conditions: dosage 1280 g/ha, visual rating about 3 weeks after treatment
Protocol: [table] b) Seeds of mono- and dicotyledonous weed plants are placed in plastic pots in sandy loam soil (twin sowing with one species each of mono- or dicotyledonous weed plants per pot), covered with soil and cultivated in a greenhouse under controlled growth conditions. 2 to 3 weeks after sowing, the test plants are treated at the one-leaf stage. The compounds of the invention, formulated in the form of wettable powders (WP) or as emulsion concentrates (EC), are applied to the green parts of the plants as aqueous suspension or emulsion with addition of 0.5% additive at a water application rate equivalent to 600 litres per hectare. After the test plants have been kept in the greenhouse under optimum growth conditions for about 3 weeks, the activity of the preparations is rated visually in comparison to untreated controls. For example, 100% activity=the plants have died, 0% activity=like control plants. Tables A16 to A21 below show the effects of selected compounds of the general formula (I) according to Tables 1 and 2 on various harmful plants and at an application rate corresponding to 1280 g/ha, which were obtained by the experimental procedure mentioned above.

POAAN [2] = experiment: Herbicidal pre-emergence action 2b (doubly sown, 1280 g/ha); type: in vivo, Poa annua; conditions: doubly sown pots, dosage 1280 g/ha, visual scoring after about 3 weeks
Text: as §1

AMARE [3] = experiment: as above; type: in vivo, Amaranthus retroflexus; conditions: doubly sown pots, dosage 1280 g/ha, visual scoring after about 3 weeks
Text: as §1

AMARE [4] = experiment: Herbicidal pre-emergence action 2a (greenhouse pots, visual scoring); type: in vivo, Amaranthus retroflexus; conditions: dosage 320 g/ha, visual scoring after about 3 weeks vs untreated controls
Text: (§2) [table] a) Seeds of monocotyledonous and dicotyledonous weed plants and crop plants are placed in plastic or organic plant pots and covered with soil. The compounds of the invention, formulated in the form of wettable powders (WP) or as emulsion concentrates (EC), are then applied onto the surface of the covering soil as aqueous suspension or emulsion with addition of 0.5% additive at a water application rate of 600 1/ha (converted). After the treatment, the pots are placed in a greenhouse and kept under good growth conditions for the trial plants. After about 3 weeks, the effect of the preparations is scored visually in comparison with untreated controls as percentages. For example, 100% activity=the plants have died, 0% activity=like control plants. Tables B1 to B15 below show the effects of selected compounds of the general formula (I) according to Tables 1 and 2 on various harmful plants and an application rate corresponding to 320 g/ha and/or 80 g/ha, which were obtained by the experimental procedure mentioned above.

SETVI [5] = experiment: Herbicidal post-emergence action 1a (greenhouse pots, visual rating); type: in vivo, Setaria viridis; conditions: rated visually about 3 weeks after treatment, 100% = plants have died, 0% = like control plants
Protocol: (§3) [table] a) Seeds of monocotyledonous and dicotyledonous weeds and crop plants are placed in sandy loam in plastic or organic plant pots, covered with soil and cultivated in a greenhouse under controlled growth conditions. 2 to 3 weeks after sowing, the test plants are treated at the one-leaf stage. The compounds of the invention, formulated in the form of wettable powders (WP) or as emulsion concentrates (EC), are then sprayed onto the green parts of the plants as aqueous suspension or emulsion with addition of 0.5% additive at a water application rate of 600 1/ha (converted). After the test plants have been kept in the greenhouse under optimum growth conditions for about 3 weeks, the activity of the preparations is rated visually in comparison to untreated controls. For example, 100% activity=the plants have died, 0% activity=like control plants. Tables A1 to A15 below show the effects of selected compounds of the general formula (I) according to Tables 1 and 2 on various harmful plants and an application rate corresponding to 320 g/ha and/or 80 g/ha, which were obtained by the experimental procedure mentioned above.

VERPE [6] = experiment: as above; type: in vivo, Veronica persica; conditions: dosage 320 g/ha, visual rating about 3 weeks after treatment
Protocol: as §3

SETVI [7] = experiment: Herbicidal pre-emergence action 2a (greenhouse pots, visual scoring); type: in vivo, Setaria viridis; conditions: dosage 320 g/ha, visual scoring after about 3 weeks vs untreated controls
Text: as §2

VIOTR = experiment: Herbicidal post-emergence action 1a (greenhouse pots, visual rating); type: in vivo, Viola tricolor; conditions: dosage 320 g/ha, visual rating about 3 weeks after treatment
Protocol: as §3

LOLRI = experiment: Herbicidal pre-emergence action 2a (greenhouse pots, visual scoring); type: in vivo, Lolium rigidum; conditions: dosage 320 g/ha, visual scoring after about 3 weeks vs untreated controls
Text: as §2

ECHCG = experiment: Herbicidal pre-emergence action 2b (doubly sown, 1280 g/ha); type: in vivo, Echinochloa crus-galli; conditions: doubly sown pots, dosage 1280 g/ha, visual scoring after about 3 weeks
Text: as §1

VERPE [8] = experiment: Herbicidal pre-emergence action 2a (greenhouse pots, visual scoring); type: in vivo, Veronica persica; conditions: dosage 320 g/ha, visual scoring after about 3 weeks vs untreated controls
Text: as §2

AMARE [9] = experiment: Herbicidal post-emergence action 1a (greenhouse pots, visual rating); type: in vivo, Amaranthus retroflexus; conditions: visual rating about 3 weeks after treatment
Protocol: as §3

POLCO [10] = experiment: as above; type: in vivo, Polygonum convolvulus; conditions: dosage 320 g/ha, visual rating about 3 weeks after treatment
Protocol: as §3

ALOMY [11] = experiment: Herbicidal pre-emergence action 2a (greenhouse pots, visual scoring); type: in vivo, Alopecurus myosuroides; conditions: dosage 320 g/ha, visual scoring after about 3 weeks
Text: as §2

AVEFA [12] = experiment: Herbicidal post-emergence action 1a (greenhouse pots, visual rating); type: in vivo, Avena fatua; conditions: Dosage 80 g/ha; rated visually about 3 weeks after treatment; 100% = plants have died, 0% = like control plants
Protocol: as §3

POLCO [13] = experiment: Herbicidal pre-emergence action 2a (greenhouse pots, visual scoring); type: in vivo, Polygonum convolvulus; conditions: dosage 320 g/ha, visual scoring after about 3 weeks vs untreated controls
Text: as §2

ALOMY [14] = experiment: Herbicidal post-emergence action 1a (greenhouse pots, visual rating); type: in vivo, Alopecurus myosuroides; conditions: Dosage 80 g/ha; rated visually about 3 weeks after treatment; 100% = plants have died, 0% = like control plants
Protocol: as §3

AVEFA [15] = experiment: Herbicidal pre-emergence action 2a (greenhouse pots, visual scoring); type: in vivo, Avena fatua; conditions: dosage 320 g/ha, visual scoring after about 3 weeks
Text: as §2

COC(=O)C(C)Oc1nn(-c2cnccn2)c(-c2ccccc2)c1Br (racemic) [Example I-19]
Pre-emergence action at 1280 g/ha against STEME in % (STEME): 100% | Post-emergence action at 1280 g/ha against POAAN in % (POAAN [1]): 100% | Pre-emergence action at 1280 g/ha against POAAN in % (POAAN [2]): 100% | Pre-emergence action at 1280 g/ha against AMARE in % (AMARE [3]): 100%

COC(=O)C(C)Oc1nn(-c2nccnc2F)c(-c2ccc(F)nc2)c1Br (racemic) [Example I-78]
Pre-emergence action against AMARE in % (AMARE [4]): 80% | Post-emergence action against SETVI in % (SETVI [5]; Dosage 80 g/ha): 80% | Post-emergence action against SETVI in % (SETVI [5]; Dosage 320 g/ha): 100% | Post-emergence action against VERPE in % (VERPE [6]): 80% | Pre-emergence action against SETVI in % (SETVI [7]): 90%

COC(=O)[C@@H](C)Oc1nn(-c2cnccn2)c(-c2cccc(F)c2)c1Br [Example 1-20]
Post-emergence action against VIOTR in % (VIOTR): 90% | Pre-emergence action against LOLRI in % (LOLRI): 100%

COC(=O)COc1nn(-c2cnccn2)c(-c2ccc(F)c(F)c2)c1C#N [Example I-23]
Pre-emergence action at 1280 g/ha against ECHCG in % (ECHCG): 100% | Pre-emergence action at 1280 g/ha against AMARE in % (AMARE [3]): 100%

COC(=O)[C@@H](C)Oc1nn(-c2cnccn2)c(-c2ccnnc2)c1C#N [Example I-32]
Pre-emergence action against VERPE in % (VERPE [8]): 90%

COC(=O)[C@@H](C)Oc1nn(-c2nccnc2F)c(-c2ccc(F)nc2)c1Br [Example I-80]
Post-emergence action against AMARE in % (AMARE [9]; dosage 80 g/ha): 80% | Post-emergence action against AMARE in % (AMARE [9]; dosage 320 g/ha): 80% | Post-emergence action against POLCO in % (POLCO [10]): 80% | Pre-emergence action against AMARE in % (AMARE [4]): 100% | Pre-emergence action against ALOMY in % (ALOMY [11]): 100% | Pre-emergence action against LOLRI in % (LOLRI): 80% | Pre-emergence action against VERPE in % (VERPE [8]): 80%

COC(=O)COc1nn(-c2cnccn2)c(-c2ccc(F)nc2)c1C1CC1 [Example I-84]
Post-emergence action against AMARE in % (AMARE [9]; dosage 80 g/ha): 90% | Post-emergence action against AMARE in % (AMARE [9]; dosage 320 g/ha): 90% | Post-emergence action against POLCO in % (POLCO [10]): 80% | Pre-emergence action against AMARE in % (AMARE [4]): 90% | Post-emergence action against VERPE in % (VERPE [6]): 80%

CC(Oc1nn(-c2cnccn2)c(-c2ccc(F)nc2)c1C1CC1)C(=O)O (stereo not shown) [Example I-86]
Post-emergence action against AVEFA in % (AVEFA [12]): 90% | Pre-emergence action against AMARE in % (AMARE [4]): 80% | Pre-emergence action against POLCO in % (POLCO [13]): 80% | Pre-emergence action against ALOMY in % (ALOMY [11]): 100% | Post-emergence action against ALOMY in % (ALOMY [14]): 90% | Pre-emergence action against LOLRI in % (LOLRI): 100%

COC(=O)[C@@H](C)Oc1nn(-c2cnccn2)c(-c2ccc(F)nc2)c1C1CC1 [Example I-87]
Pre-emergence action against AVEFA in % (AVEFA [15]): 90% | Post-emergence action against AVEFA in % (AVEFA [12]): 90% | Post-emergence action against AMARE in % (AMARE [9]; dosage 80 g/ha): 80% | Pre-emergence action against ALOMY in % (ALOMY [11]): 100% | Post-emergence action against ALOMY in % (ALOMY [14]): 100% | Pre-emergence action against SETVI in % (SETVI [7]): 100% | Pre-emergence action against LOLRI in % (LOLRI): 100% | Pre-emergence action against VERPE in % (VERPE [8]): 80%
